Data reported in PMC4464269, “Potential of acylated peptides to target the influenza A virus” (Beilstein Journal of Organic Chemistry, 2015).
Where “and” joins values, the source holds several entries; their conditions need not be identical. Identical values can stand only once. Ends that are not written are not given here.

Experiments:
[1] = type: physicochemical; conditions: for hydrodynamic diameter (DLS): Zetasizer Nano ZS, back scattering 173°
[2] = system: Aichi H3N2 virus (X31) mediated hemagglutination of human erythrocytes; type: cell-based, influenza A virus A/Aichi/2/1968 H3N2 (X31)
human erythrocytes [3] = assay: Hemolysis assay; type: cell-based; conditions: 2% human erythrocytes, 1 h at 37 °C, absorption of the supernatant at 540 nm; titration, three experiments; for C18-s2s above concentrations of 20 µM
Protocol: To assess how strong membrane incorporation of these peptides can perturb membranes we measured their cell lytic activity in a titration experiment with human erythrocytes. […] For EB the same has been reported by Jones et al..
Figure 7 Hemolytic activity of stearylated peptides and EB. 2% human erythrocytes were incubated for one hour with peptides at 37 °C. After centrifugation, the hemolytic activity was assessed by absorption measurement of the supernatant at 540 nm. Error bars indicate the SEM of three titration experiments.
Peptide inhibitors were serially diluted in PBS, mixed with a 2% human erythrocyte solution, and incubated for 1 h at 37 °C. Afterwards, the mix was centrifuged for 10 min at 1500 x g.
Supernatants were measured for absorption at 540 nm representative for hemoglobin release. Buffer absorbance was subtracted from all data points.
Protection from infection assay
Viral infection inhibition assays were performed using an MTS reagent (Promega). 15,000 MDCK II cells were seeded the day before infection. […] Two hours before the readout, 20 µL MTS solution (Promega) was added to each well and put back to 37 °C for the remaining time. Finally, absorbance at 490 nm was measured by a plate reader (Fluostar optima, BMG) and data were normalized to maximum viral cytotoxicity. […]

human erythrocytes [4] = type: cell-based
[5] = system: infection of MDCK II cells by Aichi H3N2; type: cell-based, influenza A virus A/Aichi/2/1968 H3N2 (X31)
[6] = type: physicochemical; conditions: 2 mM in PBS, negative staining with 1% phosphotungstic acid pH 7.4; cryo-TEM gave the same results
[7] = system: Rostock H7N1 virus mediated hemagglutination of turkey erythrocytes; type: cell-based, influenza A virus A/FPV/Rostock/34 H7N1
[8] = system: infection of MDCK II cells by Rostock H7N1; type: cell-based, influenza A virus A/FPV/Rostock/34 H7N1
Hongkong H5N1 = conditions: read-out: IC50 against Hongkong H5N1; cited from earlier work
Aichi H3N2 = conditions: at higher viral titer than used in this paper; ref [14]; read-out: IC50 against Aichi H3N2 in the HAI; cited from earlier work
Protocol: The potential to inhibit binding of influenza viruses to cells can be investigated by the well-established hemagglutination inhibition assay (HAI). All peptides, but the control peptide C18-rs2s were able to inhibit Aichi H3N2 virus mediated hemagglutination already at low micromolar concentrations (Table 2). For EB an IC50 of 20 µM against Aichi H3N2 in the HAI has been determined, however at higher viral titer than we used.

[9] = 20 µM in PBS (10 mM, pH 7.4), volume distribution profile

| Substance | volume size distribution (DLS), in words ([1]; 20 µM in PBS (10 mM, pH 7.4)) | KiHAI (Aichi H3N2) [2] | hemolytic activity (human erythrocytes [3]) | KiA (human erythrocytes [4]) [µM] | PDI (DLS) ([1]; 20 µM in PBS (10 mM, pH 7.4)) | hydrodynamic diameter (DLS) [1, 9] [nm] | share of bigger supramolecular structures (DLS) [1, 9] | size of supramolecular aggregates (DLS) ([1]; concentration of 100 µM) [µm] | enhancement of inhibitory potential in infection inhibition compared with unmodified PeB^GF, Aichi H3N2 [5] | IC50 ([5]; read-out: IC50, infection inhibition of MDCK cells by Aichi H3N2) [µM] | morphology of assemblies (TEM) [6] | KiHAI (Rostock H7N1) [7] | decrease of the KiHAI value compared with unmodified PeB^GF, H7N1 [7] [fold] | decrease of the KiHAI value compared with unmodified PeB^GF, Aichi H3N2 [2] [fold] | enhancement of inhibition in infection inhibition compared with unmodified PeB^GF, Rostock H7N1 [8] | IC50 ([8]; read-out: IC50, infection inhibition of MDCK cells by Rostock H7N1) [µM] | IC50 (Hongkong H5N1) [µM] | IC50 (Aichi H3N2) [µM] |
| --- | --- | --- | --- | --- | --- | --- | --- | --- | --- | --- | --- | --- | --- | --- | --- | --- | --- | --- |
| C17H35CO-ARLPRTMV-CONH2 [C18-s2s, stearylated sialic acid mimetic peptide (Matsubara et al. 2010)] | multimodal | 0.8 ± 0.5 µM | extremely hemolytic | 7.0 ± 0.8 |  |  |  |  |  |  |  |  |  |  |  |  |  |  |
| C17H35CO-VMTRPLRA-CONH2 [C18-rs2s, reference compound] |  | no effect |  | 4.1 ± 2.1 | 0.328 | 818.8 |  |  |  |  |  |  |  |  |  |  |  |  |
| C17H35CO-XXXXXXXXXXXXXXX-CONH2 [C18-PeB^GF, stearylated HA antibody derived antiviral peptide] |  | 1.2 ± 0.0 µM |  | 100.0 ± 0.0 | 0.454 | 16.7 | 10–15% | > 1 | approx. 5 fold | 5.9 | fibrillar supramolecular arrangement being up to several hundred nanometers long | 2.8 µM and 2.8 ± 0.9 µM | 10 | 20 | did not increase | 84 |  |  |
| RRKKAAVALLPAVLLALLAP-NH2 [EB] |  | 1.6 ± 0.3 µM |  | 8.6 ± 7.0 |  |  |  |  |  |  |  |  |  |  |  |  | 4.5 | 20 |
